In patent US10433548B2, “Biocidal compositions comprising iron chelators” (Arch Chemicals, Inc., priority 2012, dated 2019):
≈ marks a conversion by molar mass, not a printed value. Read-outs that look alike come from different tables or passages of the source.

Tests used:
E. coli [1] = experiment: Minimum Inhibitory Concentration (MIC) test, 96-well microtiter plate; format: cell-based; conditions: Active ZPT alone or plus chelator or chelator + Zn(II); Molar Ratio HBED 10×, 8-HQ 5×, 8-HQ + Zn(II) 1×, 2-HPNO 10×
Method: (§1) Activities of antimicrobial compositions of the present invention were tested against a range of typical skin microorganisms in a Minimum Inhibitory Concentration (MIC) test. MICs for the organisms were determined in a standard 96-well microtiter plate assay in Brain Heart Infusion Broth (BHI) for P. acnes; Tryptic Soy Broth (TSB) for the remaining bacteria; Ushijima Broth for M. furfur; Sabouraud Dextrose Broth (SDB) for other fungi. Samples were tested in duplicate on separate plates. For bacteria and fungi plates, samples were serially diluted into double strength media on the microtiter plates. The bacterial or fungal inocula, suspended in sterile deionized water, were then added to the wells in 1:1 ratio to the medium. The final concentration of bacteria in the wells was 5×10^5 CFUs/mL, the final concentration of fungi was 5×10^4 cells or spores/mL. Plates were incubated: anaerobically at 35° C. for 7 days for P. acnes; aerobically at 35° C. for 2 days for the remaining bacteria and aerobically at 35° C. for 7 days for M. furfur; aerobically at 28° C. for 7 days for T. mentagrophytes.

P. acnes = experiment: as above; format: cell-based; conditions: for MIC: Cutibacterium acnes
Method: as §1

T. mentagrophytes = experiment: as above; format: cell-based; set-up: unit not given here
Method: as §1

P. aeruginosa [2] = experiment: as above; format: cell-based; set-up: unit not given here
Method: as §1

M. furfur = experiment: as above; format: cell-based; set-up: unit not given here
Method: as §1

S. epidermidis = experiment: as above; format: cell-based; set-up: unit not given here
Method: as §1

E. coli [3] = experiment: Time-kill test (microbial reduction); format: cell-based; conditions: E. coil; for log reduction: from initial microbial population
Method: (§2) Time-kill test were performed to assess microbial reduction by antimicrobial agents, with and without chelators, against S. aureus, P. aeruginosa, and E. coli.
(§3) 100 μL of sample and 100 μL of bacterial suspension at 5×10^5 cells/mL was loaded into the first well of each row in a 96-well plate, mixed and after specific contact time, 10-fold serial dilutions were made using a multichannel pipette by transferring 20 μL into 180 μL of Letheen broth, mixing 10 times. The process was repeated. Thereafter, three replicates of 10 μL from each of the six selected dilutions were plated onto Tryptic Soy Agar using a 2-20 μL monochannel pipette. Plates were allowed to dry, then placed into an incubator at 35° C. for 24 hrs. Colonies (0.5-1 mm) were enumerated using a colony counter.

P. aeruginosa [4] = experiment: Time-kill test (microbial reduction); format: cell-based; conditions: for log reduction: from initial microbial population
Method: as §2, §3

S. aureus = experiment: Time-kill test (microbial reduction); format: cell-based; conditions: for log reduction: from initial microbial population
Method: as §2, §3

[5] = test system: S. aureus, P. aeruginosa, and E. coli; conditions: in combination with ZPT
Method: as §2, §3

R. subcapitata = experiment: Minimum Inhibitory Concentration (MIC) test, 96-well microtiter plate; format: cell-based; set-up: unit not given here
B. subtilis = experiment: as above; format: cell-based; set-up: unit not given here
Method: as §1

A. pullulans = experiment: as above; format: cell-based; set-up: unit not given here; conditions: concentration of BIT; BIT alone or with potentiator, Molar Eq (Pot:BIT) 10:1
Method: as §1

A. brasiliensis = experiment: as above; format: cell-based; set-up: unit not given here
Method: as §1

P. faveolarum = experiment: as above; format: cell-based; set-up: unit not given here
Method: as §1

C. pyrenoidosa = experiment: as above; format: cell-based; set-up: unit not given here
C. albicans = experiment: as above; format: cell-based; set-up: unit not given here; conditions: concentration of ZPT; ZPT alone or with potentiator, Molar Eq (Pot:ZPT) 10:1, 8-HQ-Zn 1:1
Method: as §1

[6] = Active ZPT alone or plus chelator or chelator + Zn(II), Molar Ratio HBED 10×, 8-HQ 5×, 8-HQ + Zn(II) 1×, 2-HPNO 10×
[7] = concentration of BIT, BIT alone or with potentiator, Molar Eq (Pot:BIT) 10:1
[8] = concentration of ZPT, ZPT alone or with potentiator, Molar Eq (Pot:ZPT) 10:1, 8-HQ-Zn 1:1

Molecule | MIC E. Coli (E. coli [1]) | MIC T. mentagrophytes (T. mentagrophytes; [6]) | MIC P. aeruginosa (P. aeruginosa [2]; [6]) | MIC M. furfur (M. furfur; [6]) | MIC S. epidermidis (S. epidermidis; [6]) | CFU (E. coli [3]; 4 hr contact) | log reduction (E. coli [3]; 4 hr contact) [log] | CFU (E. coli [3]; 8 hr contact) | log reduction (E. coli [3]; 8 hr contact) [log] | CFU (P. aeruginosa [4]; 4 hr contact) | log reduction (P. aeruginosa [4]; 4 hr contact) [log] | CFU (P. aeruginosa [4]; 8 hr contact) | log reduction (P. aeruginosa [4]; 8 hr contact) [log] | CFU (S. aureus; 4 hr contact) | log reduction (S. aureus; 4 hr contact) [log] | CFU (S. aureus; 8 hr contact) | log reduction (S. aureus; 8 hr contact) [log] | further results
Oc1cccc2cccnc12 [8-HQ, 8-hydroxyquinoline] | 7.81 | 7.81 | 125 | 1.95 | 0.49 | 8.6 × 10^5 CFUs/mL | 2 | 1.2 × 10^6 CFUs/mL | 2 | 2.6 × 10^6 CFUs/mL | 1 | 3 × 10^5 CFUs/mL | 3 | 1.6 × 10^5 CFUs/mL | 1 | 6.3 × 10^5 CFUs/mL | 2 | MIC (P. acnes; read-out: MIC values against P. acnes, Benzoyl Peroxide): 0.78 µg/mL (≈ 5.37 µM); MIC (P. acnes; read-out: MIC values against P. acnes, Salicylic Acid): 0.78 µg/mL (≈ 5.37 µM)
O=C(O)CN(CCN(CC(=O)O)Cc1ccccc1O)Cc1ccccc1O [HBED, N,N-bis(2-hydroxybenzyl)ethylenediamine-N,N-diacetic acid] | 15.63 | 0.49 | 62.5 | 3.91 | 0.98 | 8.3 × 10^5 CFUs/mL | 2 | 1.6 × 10^6 CFUs/mL | 2 | >10^7 CFUs/mL | 0 | 1.6 × 10^5 CFUs/mL | 3 | 1.4 × 10^6 CFUs/mL | 1 | 2.3 × 10^5 CFUs/mL | 2 | ranking of chelators in time-kill studies [5]: best chelator; MIC R. subcapitata (R. subcapitata; [7]): 4.06; MIC values against P. acnes, Benzoyl Peroxide (P. acnes; Benzoyl Peroxide without chelator or with chelator, Molar Eq. HBED 10×, 8-HQ 5×, DTPA 10×, Desferrioxamine 1×): 3.13 ppm; MIC values against P. acnes, Salicylic Acid (P. acnes; Salicylic Acid without chelator or with chelator, Molar Eq. HBED 10×, 8-HQ 5×, DTPA 10×, Desferrioxamine 1×): 3.13 ppm; MIC B. subtilis (B. subtilis; [7]): 0.51; MIC A. pullulans (A. pullulans): 4.06; MIC A. brasiliensis (A. brasiliensis; [7]): 32.50; MIC P. aeruginosa (P. aeruginosa [2]; [7]): 8.13; MIC P. faveolarum (P. faveolarum; [7]): 4.06; MIC C. pyrenoidsa (C. pyrenoidosa; [7]): 2.03
zinc pyrithione [ZPT] | 1.95-7.81 | 3.91-5 | 31.25-62.5 | 1.25-1.95 | 1.95-7.8 | >10^7 CFUs/mL | 0 | >10^7 CFUs/mL | 0 | 7.3 × 10^6 CFUs/mL | 1 | 6.3 × 10^6 CFUs/mL | 2 |  | 1 |  | 2 | MIC R. subcapitata (R. subcapitata; [8]): 1.95-4; MIC T. mentagrophytes (T. mentagrophytes; [8]): 3.91-8; MIC B. subtilis (B. subtilis; [8]): 1.95-4; MIC A. brasiliensis (A. brasiliensis; [8]): 7.81-15.6; MIC C. albicans (C. albicans): 7.81; MIC P. aeruginosa (P. aeruginosa [2]; [8]): 31-62; MIC M. furfur (M. furfur; [8]): 0.98-4; MIC P. faveolarum (P. faveolarum; [8]): 0.05-2; MIC S. epidermidis (S. epidermidis; [8]): 1.95-7.8; MIC C. pyrenoidsa (C. pyrenoidosa; [8]): 0.24-4
